{
  "source": "patent US9969970B2",
  "about": "“DNA-cell conjugates” (The Regents of the University of California, priority 2009, dated 2018)",
  "key": {"Jurkat cells [1]": {"system": "Jurkat cells", "assay": "Single cell acidification on the bifunctional microelectrode array, rotenone stimulation", "format": "cell-based", "description": "Metabolic monitoring was accomplished as follows: Cells were suspended at a concentration of 10^6/ml, and the suspension was flowed into the microfluidic device. Cell suspensions were flowed into the channel using 1 mL syringes with Teflon tubing. Where Jurkat and primary T cells were monitored simultaneously they were labeled with CellTracker Green and Red dyes, respectively, as previously described and mixed in an equal ratio. Following a 5 min incubation to allow DNA-based cell capture, the unbound cells were rinsed away (5 ul/min for 3 min) with the low-buffered media. After rinsing, the pH response was monitored electrochemically for 10 min. After this recording, cells were released from the electrodes by heating the device to 55° C. and applying a strong rinse (200 uL/min) with the low-buffered media. Once rinsed and allowed to return to 37° C., the device could be reloaded with cells. This allowed for multiple measurements to be taken with a single cell preparation.\nVoltage measurements were recorded between the iridium oxide electrode and a distant FLEXREF Ag/AgCl reference electrode from World Precision Instruments. An identical iridium oxide electrode outside the cell area was used to compensate for any sensor drift. The sensor electrodes were connected to a National Instruments PCI-6031E data acquisition card with 16 bit analog to digital conversion. The digitized signals were monitored using a custom Labview VI, sampling in multiplex at 3 hz. Voltage signals were processed with a 1% Loess filter using Peak Fit software to reduce noise.\n(§1) Incubation with rotenone would be expected to interfere with the mitochondrial electron transport chain, causing cells to shift to lactic acid fermentation to complete the glycolytic cycle. The resulting excretion of lactic acid should then increase the rate of acidification in the cellular environment. In the experiment, captured cells were first incubated under normal conditions to establish a baseline rate of acidification (˜8.8 milli-pH/min) under aerobic metabolism."}, "Jurkat cells [2]": {"system": "Jurkat cells", "assay": "Bulk cell acidification control with rotenone", "format": "cell-based", "settings": "1 μM rotenone, low-buffered media, ~10^6 cells/mL, 37° C.", "description": "as §1"}, "Jurkat cells [3]": {"system": "Jurkat cells", "assay": "Quantification of DNA attached to the cell surface", "format": "cell-based", "settings": "Ac4ManNAz-fed cells, Staudinger ligation"}, "Jurkat cells [4]": {"system": "Jurkat cells", "assay": "Bulk cell growth and morphology in the presence of adhesion molecules", "format": "cell-based", "settings": "adhesion molecule in suspension; DNA-coated cells with complementary sequence", "description": "(§2) FIG. 17. Comparison of biomolecule-based adhesion methods. a) Bulk cell growth rates were first determined in the presence of the adhesion molecules. A suspension of Jurkat cells was combined with ConA or anti-CD3 IgG, and a solution of DNA-coated cells was combined with the complementary DNA strands. At various time points the total number of cells was counted. The control sample was grown in the absence of any adhesion molecules. b) To evaluate cell capture efficiency, solutions of 20 μM FITC-labeled ssDNA, 20 μM FITC-labeled ConA, and 6 μM FITC-labeled anti-CD3 IgG were applied to aldehyde-coated glass slides, and the biomolecules were attached by reductive amination. Solutions containing 1×10^7 Jurkat cell mL^−1 were then introduced onto the resulting slides. The samples were incubated for 10 min at room temperature and then washed with two portions of phosphate-buffered saline (PBS) before evaluation. c) To evaluate cell viability, cells were immobilized on DNA, ConA, and anti-CD3 IgG coated aldehyde slides. […] The cells were evaluated within 1 h by fluorescence microscopy. * ConA and antibody immobilized cells that were partially stained by annexin were counted as cells undergoing apoptosis. […]\nThe effects of the adhesion molecules on the viability of the cells were assessed using two different methods. […]"}, "Jurkat cells [5]": {"system": "Jurkat cells", "assay": "Cell capture, morphology and annexin V/PI viability of cells immobilized on biomolecule-coated slides", "format": "cell-based", "description": "as §2, with “slides.” for “slides. The samples were incubated for 10 min at room temperature and then washed with two portions of phosphate-buffered saline (PBS) before evaluation. c) To evaluate cell viability, cells were immobilized on DNA, ConA, and anti-CD3 IgG coated aldehyde slides.”\nThe extent of apoptosis of surface bound cells was determined by annexin V/propidium iodide staining (BD Biosciences). […] The cells were imaged by fluorescence microscopy and the number of non-viable cells counted after one hour. […]"}, "Jurkat cells [6]": {"system": "Jurkat cells", "assay": "AFM measurement of de-adhesion force, cell-cantilever", "settings": "cantilever attachment method", "description": "FIG. 18. AFM measurement of de-adhesion force. A) Six sample traces for a single cell are shown in shades of gray, with the average trace shown in black. At zero distance, the cell is in full contact with the cantilever, which is applying a positive force. As distance increases, the cantilever is pulled away from the glass slide surface, causgin the cell-cantilever linkage to rupture and result in the zero-force, no-contact region. The force of d-adhesion was calculated as the difference between the curve minimum and the horizontal no=contact region. B) Adhesion forces were measured under different retraction rates (15.7 and 8.2 μm/s) and contact forces (400 and 200 pN) for the DNA, ConA, and antibody systems. Data were obtained by measuring size de-adhesion events on more than four different cells. Error bards represent one standard deviation.\nOur assay to determine the strength of cantilever attachment was designed such that cell-cantilever adhesions were fewer in number, and therefore weaker overall, than DNA-based adhesions between a cell and the complementarily functionalized glass slide. […] The force of de-adhesion was measured for each attachment method using two different retraction rates and two different contact forces (FIG. 18a). The measured force of de-adhesion increased with contact force and retraction rate across all attachment methods, as predicted by the Bell model. […]"}, "[7]": {"settings": "20 bp DNA duplex; ConA-mannose; antibody-antigen; cited from earlier work"}},
  "note": "{Phos} = phosphine group for Staudinger ligation to cell-surface azides",
  "data": [
    {"molecule": "C=C(C)[C@H]1Cc2c(ccc3c2O[C@@H]2COc4cc(OC)c(OC)cc4[C@@H]2C3=O)O1", "note": "[rotenone]", "values": [
      {"measurement": "increase in the acidification rate", "setting": "Jurkat cells [1]; 10 μM rotenone versus baseline", "value": "three-fold"},
      {"measurement": "time to increase in acidification rate", "setting": "Jurkat cells [1]; after addition of 10 μM rotenone", "value": "≤ 1", "unit": "min"},
      {"measurement": "acidification rate", "setting": "Jurkat cells [1]; single Jurkat cells after 10 μM rotenone added to channel, baseline ~8.8 milli-pH/min", "value": "~27.7", "unit": "milli-pH/min"},
      {"measurement": "acidification over 60 min compared to identical untreated cells", "setting": "Jurkat cells [2]", "value": "more than twice"}
    ]},
    {"molecule": "Phosphine-modified ssDNA: phosphine-modified ssDNA (5′-phos-GTAACGATCCAGCTGTCACT-3′) ligated to cell-surface azides by Staudinger ligation (DNA GTAACGATCCAGCTGTCACT; DNA, 5' {Phos}, backbone not given here)", "values": [
      {"measurement": "ssDNA molecules per cell", "setting": "Jurkat cells [3]", "value": "≈ 270,000"}
    ]},
    {"molecule": "concanavalin A [ConA]", "values": [
      {"measurement": "cell growth over a three-day period", "setting": "Jurkat cells [4]", "value": "aggregated and were no longer alive after 12 h"},
      {"measurement": "apoptotic and necrotic cells, annexin V and PI staining", "setting": "Jurkat cells [5]; 24 and 48 h after immobilization", "value": "significantly higher numbers of apoptotic cells"},
      {"measurement": "morphology of immobilized cells", "setting": "Jurkat cells [5]; after 48 h on coated slides", "value": "significant changes"},
      {"measurement": "zero-force attachment events in de-adhesion measurements", "setting": "Jurkat cells [6]", "value": 12, "unit": "%"},
      {"measurement": "force of one individual linkage", "setting": "[7]", "value": 47, "unit": "pN"}
    ]}
  ]
}
